Source: PubChem BioAssay (NCI)
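These data come from cells grown in 96-well plates and exposed to compound for 48 hours at five concentrations. Definition used: TGI = concentration required for complete inhibition of growth.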

Experiments:
Assay in all cases: inhibition of tumour cell growth, NCI panel, 48 h
ACHN renal = test system: ACHN renal
HS 578T breast = test system: HS 578T breast
NCI/ADR-RES ovarian = test system: NCI/ADR-RES ovarian
M14 melanoma = test system: M14 melanoma
OVCAR-3 ovarian = test system: OVCAR-3 ovarian
U251 CNS = test system: U251 CNS
MCF7 breast = test system: MCF7 breast
MDA-MB-231 breast = test system: MDA-MB-231 breast
SK-OV-3 ovarian = test system: SK-OV-3 ovarian
786-0 renal = test system: 786-0 renal

| SMILES | TGI (ACHN renal) | TGI (HS 578T breast) | TGI (NCI/ADR-RES ovarian) | TGI (M14 melanoma) | TGI (OVCAR-3 ovarian) | TGI (U251 CNS) | TGI (MCF7 breast) | TGI (MDA-MB-231 breast) | TGI (SK-OV-3 ovarian) | TGI (786-0 renal) |
| --- | --- | --- | --- | --- | --- | --- | --- | --- | --- | --- |
| O=C(CCC(=O)OCC1OC(O)(CC2OC(CO)C(O)C(O)C2O)C(O)C1O)OCc1ccccc1 (stereo not given) | > 100 µM | > 100 µM | > 100 µM | > 100 µM | > 100 µM | > 100 µM | > 100 µM | > 100 µM | > 100 µM | > 100 µM |
| CC(C)(C)OC(=O)NCCNC(=O)CN(CC(=O)O)C1CCCCC1N(CC(=O)O)CC(=O)O (stereo not given) | > 100 µM | > 100 µM | > 100 µM | > 100 µM | > 100 µM | > 100 µM | > 100 µM | > 100 µM | > 100 µM | > 100 µM |
| CCOC(=O)C1=CN(C(=O)c2ccccc2)CCC1Cc1ccccc1 (stereo not given) | 63.6 µM | 92.8 µM | 93 µM | 37.1 µM | > 100 µM | 51.9 µM | 64 µM | 64.9 µM | > 100 µM | > 100 µM |
| Cc1ccc(CC(=O)Nc2ccc(NC(=O)CNC(=O)/C=C/c3ccc(-c4ccccc4)cc3)cc2C(=O)c2ccccc2)cc1 | 16.2 µM | 21.1 µM | 29.8 µM | 17.3 µM | 19.1 µM | 8.67 µM | 3.69 µM | 9.21 µM | 27.4 µM | 5.48 µM |
| CSc1nc(=O)c(C#N)c(-c2ccccc2)n1C1OC(COC(C)=O)C(OC(C)=O)C(OC(C)=O)C1OC(C)=O (stereo not given) | > 100 µM | > 100 µM | > 100 µM | > 100 µM | > 100 µM | > 100 µM | > 100 µM | > 100 µM | > 100 µM | > 100 µM |
| COc1cc(C2C3=C(N=C4SC(C(C)=O)=C(C)N42)c2ccccc2CC3)cc(OC)c1OC (stereo not given) | > 100 µM | > 100 µM | > 100 µM | > 100 µM | > 100 µM | > 100 µM | > 100 µM | > 100 µM | > 100 µM | > 100 µM |
| CN(/N=C/c1ccc(Cl)c(Cl)c1)C1=NCCN1 | > 100 µM | > 100 µM | > 100 µM | 31.6 µM | > 100 µM | 59.8 µM | 49.8 µM | 77.2 µM | 81.8 µM | 34.2 µM |
| O=[N+]([O-])c1ccc(Cl)cc1N/N=C/c1cccs1 | > 100 µM | > 100 µM | > 100 µM | > 100 µM | > 100 µM | > 100 µM | > 100 µM | > 100 µM | > 100 µM | > 100 µM |
| CCOC(=O)c1ccc(NC(NC(=O)CC)(C(F)(F)F)C(F)(F)F)cc1 | > 100 µM | > 100 µM | > 100 µM | > 100 µM | > 100 µM | > 100 µM | > 100 µM | > 100 µM | > 100 µM | > 100 µM |
| CN1CCN(c2c(O)c3c(c(O)c2Cl)C(=O)C=CC3=O)CC1 | 0.806 µM | 5.45 µM | 2.65 µM | 0.843 µM | 1.47 µM | 4.07 µM | 0.576 µM | 1.06 µM | 8.34 µM | 0.718 µM |
| COC1=C(OC)C(=O)C(Cc2c(Cl)nc3n2CCS3)=C(C)C1=O | 33.2 µM | 66.1 µM | 34.2 µM | 27.2 µM | 37.2 µM | 35.2 µM | 33 µM | 27.5 µM | 25.1 µM | 37.9 µM |
| COc1cc([C@@H]2c3cc4c(cc3[C@@H](Nc3ccc(NC(=O)c5cc(NC(=O)c6cc([N+](=O)[O-])cn6C)cn5C)cc3)[C@H]3COC(=O)[C@H]23)OCO4)cc(OC)c1O | 12.1 µM | > 100 µM | > 100 µM | 47.7 µM | > 100 µM | 26.2 µM | > 39.1 µM | > 64 µM | > 55.7 µM | > 39.7 µM |
| Cc1nc(N)nc(N)c1N1CCN(Cc2ccccc2)CC1 | > 100 µM | > 100 µM | > 92.6 µM | > 100 µM | > 100 µM | > 100 µM | > 100 µM | > 100 µM | > 100 µM | > 100 µM |
| Cc1nc2ccccc2cc1C[N+]12CN3CN(CN(C3)C1)C2 | 38.5 µM | > 100 µM | 56.3 µM | 39.1 µM | 86.2 µM | 28.2 µM | 27.7 µM | 43.1 µM | 98.9 µM | 37.8 µM |
| Nc1ccc(-c2nc3cc(F)ccc3s2)cc1 | > 61.7 µM | > 100 µM | > 100 µM | > 100 µM | > 100 µM | > 80 µM | > 63.2 µM | 81.5 µM | > 100 µM | > 100 µM |
| COC1=CCC2=C(CCN(C(=O)C3CCC3)C2Cc2ccc(OC)c(O)c2)C1 (stereo not given) | > 100 µM | 66.6 µM | 41.4 µM | 78.9 µM | 27.4 µM | > 100 µM | 50.1 µM | > 100 µM | 83.5 µM | 47.4 µM |
| Cc1ccc(Nc2nc(NS(=O)(=O)c3cc(C)c(Cl)cc3S)n[nH]2)cc1 | > 100 µM | > 100 µM | > 100 µM | > 100 µM | > 100 µM | > 100 µM | > 100 µM | > 100 µM | > 100 µM | > 100 µM |
| c1ccc2nn(C3CCCCO3)nc2c1 (stereo not given) | > 100 µM | > 100 µM | > 100 µM | > 100 µM | > 100 µM | > 100 µM | > 100 µM | > 100 µM | > 100 µM | > 100 µM |

| SMILES | TGI (ACHN renal) | TGI (HS 578T breast) | TGI (NCI/ADR-RES ovarian) | TGI (M14 melanoma) | TGI (OVCAR-3 ovarian) | TGI (U251 CNS) | TGI (MCF7 breast) | TGI (MDA-MB-231 breast) | TGI (SK-OV-3 ovarian) | TGI (786-0 renal) |
| --- | --- | --- | --- | --- | --- | --- | --- | --- | --- | --- |
| CCOC(=O)C12C(=O)CCN1CCc1ccccc1C2C (stereo not given) | > 100 µM | > 100 µM | > 100 µM | > 100 µM | > 100 µM | > 100 µM | > 100 µM | > 100 µM | > 100 µM | > 100 µM |
| Cc1nn(C(=O)c2ccc(Cl)cc2)c2c1C(c1ccco1)SC(N)=N2 (stereo not given) | > 10 µM | > 10 µM | > 10 µM | > 10 µM | > 10 µM | > 10 µM | > 10 µM | > 10 µM | > 10 µM | > 10 µM |
| CC(C)(CN1CCCCC1)C(=O)/C=C/c1c(Cl)cccc1Cl | 3.28 µM | 8.8 µM | 5.09 µM | 2.32 µM | 2.4 µM | 2.8 µM | 5.31 µM | 2.15 µM | 8.47 µM | 2.89 µM |
| CC1CN=C(N(C)C(=O)Nc2ccc(Cl)c(Cl)c2)S1 (stereo not given) | > 100 µM | > 100 µM | 73.2 µM | 38 µM | > 100 µM | > 100 µM | 59.7 µM | > 100 µM | > 100 µM | > 100 µM |
| c1csc(-c2nnc(C34CC5CC(CC(C5)C3)C4)o2)c1 | > 100 µM | 74.6 µM | 57 µM | > 100 µM | 38.5 µM | > 100 µM | > 100 µM | 45.7 µM | > 100 µM | 60.2 µM |
| CCOC(=O)/C=C(/C(=O)OCC)n1ccc(=O)[nH]c1=O | 14.6 µM | 37.9 µM | 40.4 µM | 13.2 µM | 12.8 µM | 27.3 µM | 14.9 µM | 26.4 µM | 32.9 µM | 11.3 µM |
| O=C1/C(=C2\SCC(=O)N2c2ccccc2)SC(=S)N1c1ccccc1 | 97.7 µM | > 100 µM | 90.7 µM | > 100 µM | 83.2 µM | > 100 µM | > 100 µM | 45.2 µM | 55.2 µM | > 100 µM |
| COc1cnnc2c(C)c(-c3ccccc3)nn12 | > 100 µM | > 100 µM | > 100 µM | > 100 µM | > 100 µM | > 100 µM | > 100 µM | > 100 µM | > 100 µM | > 100 µM |
| O=C(CC(=O)Nc1ccccc1Cl)NNC(Sc1ccccc1)c1cc(N=Nc2ccc(Br)cc2)ccc1O (stereo not given) | > 10 µM | 7.18 µM | 5.61 µM | 2.68 µM | 2.91 µM | 8.26 µM | 3.22 µM | 8.68 µM | > 10 µM | 2.42 µM |
| O=C(c1ccccc1)n1[nH]c(=O)n(-c2ccc(Cl)cc2)c1=O | > 100 µM | > 100 µM | > 100 µM | > 100 µM | > 100 µM | > 100 µM | > 100 µM | > 100 µM | > 100 µM | > 100 µM |
| CC(C)C(/C=C/c1ccccc1)=N\NC(=S)NN | > 100 µM | > 100 µM | > 100 µM | > 100 µM | > 88.8 µM | > 100 µM | > 76.6 µM | > 100 µM | > 100 µM | > 100 µM |
| O=c1c(S(=O)(=O)Oc2ccccc2)coc2cc(F)ccc12 | > 100 µM | > 100 µM | > 100 µM | > 100 µM | > 100 µM | > 100 µM | > 100 µM | > 100 µM | > 100 µM | > 100 µM |
| Cc1ccsc1/C=N/Nc1ccccn1 | > 100 µM | > 100 µM | > 100 µM | > 100 µM | > 100 µM | > 100 µM | > 100 µM | > 100 µM | > 100 µM | > 100 µM |
| CC(CN(C)C)C(=O)/C=C/c1ccc(Cl)c(Cl)c1 (stereo not given) | 3.92 µM | 29 µM | 79.6 µM | 5.13 µM | 3.87 µM | 2.51 µM | 0.929 µM | 3.29 µM | 17.5 µM | 2.01 µM |
| O=C1C(CN2CCCC2)CCCC1CN1CCCC1 (stereo not given) | 3.42 µM | 72.6 µM | 18.9 µM | 3.3 µM | 9.62 µM | 41.3 µM | 2.8 µM | 31.1 µM | 31.9 µM | 2.42 µM |
| CC(C)(C)OC(=O)N1C/C=C\C(=O)C2(OCCO2)c2ccccc21 | > 100 µM | > 100 µM | > 100 µM | 65.1 µM | 29.6 µM | > 100 µM | 96.2 µM | 40.8 µM | 99.2 µM | 56.9 µM |
| CC(C)C[C@H](NC(=O)[C@H](CCc1ccccc1)NC(=O)c1ccc2ccccc2n1)B(O)O | 0.176 µM | 0.442 µM | 4.66 µM | 0.0289 µM | 0.0818 µM | 6.11 µM | 4.2 µM | 0.305 µM | 10.2 µM | 0.706 µM |
